IC50 data for 12 molecules are collected here from patent US10736932B2, “Small molecule Ras inhibitors” (Ohio State Innovation Foundation, priority 2014, dated 2020).

SMILES strings stand for the structures. Square brackets hold non-standard residues; d marks the D form. Side chains are listed from the residue outwards. Peptide text beside a SMILES is read from it. * marks the point of attachment. Phe(3,4-F2) = N[C@@H](Cc1ccc(F)c(F)c1)C(=O)O; Phe(4-F) = N[C@@H](Cc1ccc(F)cc1)C(=O)O; 2Nal = N[C@@H](Cc1ccc2ccccc2c1)C(=O)O; d2Nal = N[C@H](Cc1ccc2ccccc2c1)C(=O)O; Tle = CC(C)(C)[C@H](N)C(=O)O; X5 = O=C(c1cc(F)cc(Br)c1)*; dNle = CCCC[C@@H](N)C(=O)O; Dap = NC[C@H](N)C(=O)O Some results are limits rather than exact numbers.

What is called IC50 is the concentration at which inhibition is half-maximal.

The target of the assay is T1, K-Ras / Raf RBD interaction (Homo sapiens, UniProt P01116, G12V).
T1 construct: The G12V mutant K-Ras (amino acids 1-185) was recombinantly fused; GST (N, cleaved yes); made in house; host or cells: Escherichia coli BL21
T1 sequence (P01116 1-185 isoform P01116-2 G12V): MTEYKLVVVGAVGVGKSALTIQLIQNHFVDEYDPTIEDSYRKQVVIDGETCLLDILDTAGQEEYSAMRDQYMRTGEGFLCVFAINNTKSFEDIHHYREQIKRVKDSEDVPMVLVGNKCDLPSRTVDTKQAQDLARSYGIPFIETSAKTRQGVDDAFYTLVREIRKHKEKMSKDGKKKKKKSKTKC
Kind of assay: HTRF assay, inhibition of Ras-Raf RBD interaction.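 Also: HTRF signal read after overnight incubation of the assay plate at 4 °C.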 The assay is classed as binding. Background: TR-FRET usually uses a lanthanide donor and a delayed reading to cut background.
Method: Recombinant HA-tagged K-Ras (no GST, 50 nM), GST-Raf RBD (50 nM each), a monoclonal anti-HA antibody labeled with acceptor d2 (2 μg/mL), a monoclonal anti-GST antibody labeled with donor Tb (0.25 μg/mL) (Cisbio), and increasing concentrations of cyclic peptide (0-20 μM) were mixed inPBS (total volume of 20 μL) in a 384-well plate. The plate was incubated overnight at 4° C. and the HTRF signal was measured on a Molecular Devices Spectramax M5 or a Tecan infinite M1000 Pro plate reader. The data were analyzed by Prism 6.0 from Graphpad Software, Inc. (La Jolla, Calif.) and IC50 values were obtained by fitting the data to dose-response-inhibition curve.
The molecule `CCCC[C@H]1NC(=O)[C@H](Cc2ccc(F)cc2)NC(=O)[C@H](CCCNC(=N)N)NC(=O)[C@@H](Cc2ccc3ccccc3c2)NC(=O)[C@H](CCCNC(=N)N)NC(=O)[C@H](CCCNC(=N)N)NC(=O)[C@H](CCCNC(=N)N)NC(=O)[C@@H](CC(C)C)NC(=O)[C@H](C(C)(C)C)NC(=O)[C@H](Cc2c[nH]c3ccccc23)NC(=O)[C@H](CCC(N)=O)NC1=O` [Cyclorasin 9A41, (Trp-Tle-leu-Arg-Arg-Arg-nal-Arg-Fpa-nle-Gln)] (cyclo(W[Tle][dL]RRR[d2Nal]R[Phe(4-F)][dNle]Q)) showed an IC50 of 2000 ± 900 nM. Molecule `CCCC[C@H]1NC(=O)[C@H](Cc2ccc(F)cc2)NC(=O)[C@H](CCCNC(=N)N)NC(=O)[C@H](Cc2ccc3ccccc3c2)NC(=O)[C@H](CCCNC(=N)N)NC(=O)[C@H](CCCNC(=N)N)NC(=O)[C@H](CCCNC(=N)N)NC(=O)[C@@H](C)NC(=O)[C@H]([C@@H](C)O)NC(=O)[C@H](Cc2c[nH]c3ccccc23)NC(=O)[C@H](CCC(N)=O)NC1=O` [Cyclorasin 9A55, (Trp-Thr-ala-Arg-Arg-Arg-Nal-Arg-Fpa-nle-Gln)] (cyclo(WT[dA]RRR[2Nal]R[Phe(4-F)][dNle]Q)) registered an IC50 of 940 ± 280 nM. Next, `CCCC[C@H]1NC(=O)[C@H](C)NC(=O)[C@H](CCCNC(=N)N)NC(=O)[C@@H](Cc2ccc3ccccc3c2)NC(=O)[C@H](CCCNC(=N)N)NC(=O)[C@H](CCCNC(=N)N)NC(=O)[C@H](CCC(=O)N[C@@H](CCCCN)C(N)=O)NC(=O)[C@@H](C)NC(=O)[C@H]([C@@H](C)O)NC(=O)[C@H](Cc2c[nH]c3ccccc23)NC(=O)[C@@H](CO)NC1=O` [Cyclorasin 9A(Fpa5A), (Arg-Arg-nal-Arg-Ala-nle-ser-Trp-Thr-ala-Gln)-Lys] (cyclo(RR[d2Nal]RA[dNle][dS]WT[dA]E([Lys-NH2]))): over 10000 nM; `CCCC[C@H]1NC(=O)[C@H](Cc2ccc(F)cc2)NC(=O)[C@H](CCCNC(=N)N)NC(=O)[C@@H](Cc2ccc3ccccc3c2)NC(=O)[C@H](CCCNC(=N)N)NC(=O)[C@H](CCCNC(=N)N)NC(=O)[C@@H](CCCNC(=N)N)NC(=O)[C@@H](C)NC(=O)[C@H](CO)NC(=O)[C@H](Cc2c[nH]c3ccccc23)NC(=O)[C@H](CCC(N)=O)NC1=O` [Cyclorasin 9A17, (Trp-Ser-ala-arg-Arg-Arg-nal-Arg-Fpa-nle-Gln)] (cyclo(WS[dA][dR]RR[d2Nal]R[Phe(4-F)][dNle]Q)): 720 ± 310 nM; `CCCC[C@H]1NC(=O)[C@H](Cc2ccc(F)cc2)NC(=O)[C@H](C)NC(=O)[C@@H](Cc2ccc3ccccc3c2)NC(=O)[C@H](CCCNC(=N)N)NC(=O)[C@H](CCCNC(=N)N)NC(=O)[C@H](CCC(=O)N[C@@H](CCCCN)C(N)=O)NC(=O)[C@@H](C)NC(=O)[C@H]([C@@H](C)O)NC(=O)[C@H](Cc2c[nH]c3ccccc23)NC(=O)[C@@H](CO)NC1=O` [Cyclorasin 9A(Arg4A), (Arg-Arg-nal-Ala-Fpa-nle-ser-Trp-Thr-ala-Gln)-Lys] (cyclo(RR[d2Nal]A[Phe(4-F)][dNle][dS]WT[dA]E([Lys-NH2]))): 390 ± 280 nM.

On to `CCCC[C@H]1NC(=O)[C@H](Cc2ccc(F)cc2)NC(=O)[C@H](CCCNC(=N)N)NC(=O)[C@@H](Cc2ccc3ccccc3c2)NC(=O)[C@H](CCCNC(=N)N)NC(=O)[C@H](CCCNC(=N)N)NC(=O)[C@H](CCC(=O)N[C@@H](CCCCN)C(N)=O)NC(=O)[C@@H](C)NC(=O)[C@H]([C@@H](C)O)NC(=O)[C@H](C)NC(=O)[C@@H](CO)NC1=O` [Cyclorasin 9A(Trp8A), (Arg-Arg-nal-Arg-Fpa-nle-ser-Ala-Thr-ala-Gln)-Lys] (cyclo(RR[d2Nal]R[Phe(4-F)][dNle][dS]AT[dA]E([Lys-NH2]))), for which half-maximal inhibition (IC50) was put at 7200 ± 1000 nM. Next, `CCCC[C@H]1NC(=O)[C@H](Cc2ccc(F)c(F)c2)NC(=O)[C@H](CCCNC(=N)N)NC(=O)[C@@H](Cc2ccc3ccccc3c2)NC(=O)[C@H](CCCNC(=N)N)NC(=O)[C@H](CCCNC(=N)N)NC(=O)[C@@H](CCCNC(=N)N)NC(=O)[C@@H](C(C)C)NC(=O)[C@H](C(C)(C)C)NC(=O)[C@H](Cc2c[nH]c3ccccc23)NC(=O)[C@H](CCC(N)=O)NC1=O` [Cyclorasin 9A51, (Trp-Tle-val-arg-Arg-Arg-nal-Arg-Phe(3,4-difluoro)-nle-Gln)] (cyclo(W[Tle][dV][dR]RR[d2Nal]R[Phe(3,4-F2)][dNle]Q)): 15 nM; `CCCC[C@H]1NC(=O)[C@H](Cc2ccc(F)cc2)NC(=O)[C@H](CCCNC(=N)N)NC(=O)[C@@H](Cc2ccc3ccccc3c2)NC(=O)[C@H](CCCNC(=N)N)NC(=O)[C@H](CCCNC(=N)N)NC(=O)[C@H](CCCNC(=N)N)NC(=O)[C@@H](C)NC(=O)[C@H]([C@@H](C)O)NC(=O)[C@H](Cc2ccc3ccccc3c2)NC(=O)[C@H](CCC(N)=O)NC1=O` [Cyclorasin 9A49, (Nal-Thr-ala-Arg-Arg-Arg-nal-Arg-Fpa-nle-Gln)] (cyclo([2Nal]T[dA]RRR[d2Nal]R[Phe(4-F)][dNle]Q)): 100 ± 10 nM; `CCCC[C@H]1NC(=O)[C@H](Cc2ccc(F)cc2)NC(=O)[C@H](CCCNC(=N)N)NC(=O)[C@@H](Cc2ccc3ccccc3c2)NC(=O)[C@H](CCCNC(=N)N)NC(=O)[C@H](CCCNC(=N)N)NC(=O)[C@@H](CCCNC(=N)N)NC(=O)[C@@H](C(C)C)NC(=O)[C@H](C(C)(C)C)NC(=O)[C@H](Cc2c[nH]c3ccccc23)NC(=O)[C@H](CCC(N)=O)NC1=O` [Cyclorasin 9A53, (Trp-Tle-val-arg-Arg-Arg-nal-Arg-Fpa-nle-Gln)] (cyclo(W[Tle][dV][dR]RR[d2Nal]R[Phe(4-F)][dNle]Q)): 27 ± 11 nM. The result for `CC(C)[C@H]1NC(=O)[C@H](Cc2ccc(F)cc2)NC(=O)[C@H](CCCNC(=N)N)NC(=O)[C@@H](Cc2ccc3ccccc3c2)NC(=O)[C@H](CCCNC(=N)N)NC(=O)[C@H](CCCNC(=N)N)NC(=O)[C@@H](CCCNC(=N)N)NC(=O)[C@@H](C)NC(=O)[C@H]([C@@H](C)O)NC(=O)[C@H](Cc2c[nH]c3ccccc23)NC(=O)[C@H](CCC(N)=O)NC1=O` [Cyclorasin 9A11, (Trp-Thr-ala-arg-Arg-Arg-nal-Arg-Fpa-val-Gln)] (cyclo(WT[dA][dR]RR[d2Nal]R[Phe(4-F)][dV]Q)) reads 310 ± 80 nM. As for `CCCC[C@H]1NC(=O)[C@H](CNC(=O)c2cc(F)cc(Br)c2)NC(=O)[C@H](CCCNC(=N)N)NC(=O)[C@@H](Cc2ccc3ccccc3c2)NC(=O)[C@H](CCCNC(=N)N)NC(=O)[C@H](CCCNC(=N)N)NC(=O)[C@H](CCCNC(=N)N)NC(=O)[C@@H](C)NC(=O)[C@H]([C@@H](C)O)NC(=O)[C@H](Cc2c[nH]c3ccccc23)NC(=O)[C@H](CCC(N)=O)NC1=O` [Cyclorasin 9A44a, (Trp-Thr-ala-Arg-Arg-Arg-nal-Arg-Dap(3-bromo-5-fluorobenzoyl)-nle-Gln)] (cyclo(WT[dA]RRR[d2Nal]R[Dap](X5)[dNle]Q)), the IC50 was found to be 83 ± 8 nM. `CCCC[C@H]1NC(=O)[C@H](Cc2ccc(F)c(F)c2)NC(=O)[C@H](CCCNC(=N)N)NC(=O)[C@@H](Cc2ccc3ccccc3c2)NC(=O)[C@H](CCCNC(=N)N)NC(=O)[C@H](CCCNC(=N)N)NC(=O)[C@H](CCCNC(=N)N)NC(=O)[C@@H](C(C)C)NC(=O)[C@H](C(C)(C)C)NC(=O)[C@H](Cc2c[nH]c3ccccc23)NC(=O)[C@H](CCC(N)=O)NC1=O` [Cyclorasin 9A54, (Trp-Tle-val-Arg-Arg-Arg-nal-Arg-Phe(3,4-difluoro)-nle-Gln)] (cyclo(W[Tle][dV]RRR[d2Nal]R[Phe(3,4-F2)][dNle]Q)) registered an IC50 of 18 nM.
